# Reference: PubChem BioAssay (NCI)
#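 96-well plates; 48 h exposure; 5 concentrations. Endpoints by linear interpolation between flanking doses. Not reached: highest tested concentration assigned. GI50 is the concentration that inhibits growth by half. TGI is the concentration that stops growth completely.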
# Test system: MDA-MB-468 breast
# Assay: growth of human tumour cells (NCI), 48 h
SMILES,GI50 [nM],TGI [nM]
N#Cc1ccc(OCc2nc(N)nc(N)c2-c2ccc(Cl)c(Cl)c2)cc1,1530,53900
O=c1[nH]nnc2c1ncn2C1OC(CO)C(O)C1O (centres undefined),3360,> 100000
CCN(Cc1ccc(Cl)cc1)c1ccc(CO)c(Cl)c1,20,62.6
C=C1C(=O)O[C@H]2[C@H]1CC/C(CNC(=O)/C=C/c1cc(OC)c(OC)c(OC)c1)=C\CC[C@@]1(C)O[C@@H]21,220,1060
C=CCN=c1sc2c(n1NC(=O)c1cc3ccc1CCc1ccc(cc1)CC3)C(=O)c1ccccc1C2=O,2280,5720
Cc1cccc(/C=C/c2c(C(=O)/C=C/c3ccccc3)c(C)nc3ccccc23)c1,1900,3790
Fc1ccc(C2CC(c3cccc(Nc4ccncc4)c3)=NN2c2ccc(Cl)cc2)cc1 (centres undefined),1420,2930
COc1ccc2sc(NC(=O)CCCCCCNC(=O)C(O)(O)C(F)(F)F)nc2c1,665,1810
O=C(Nc1cccc(-c2nc(-c3ccc(NC(=O)c4cccnc4)cc3Cl)no2)c1)Nc1ccc(NC(=O)C2CC2)c(C(F)(F)F)c1,193,691
COc1ccc(-c2nn(-c3cccc(Cl)c3)cc2-c2cc(-c3cccs3)[nH]c(=S)n2)cc1,2570,9910
O=C(c1ccccc1)c1ccccc1-c1ccccc1,768,3700
CCN(Cc1cc(Nc2nc(C)cn3c(-c4cn[nH]c4)cnc23)sn1)C(C)(C)CO,< 12.3,233
O=c1[nH]c(=O)c2cn[nH]c2[nH]1,> 100000,> 100000
C/C=C(\C)C(=O)NC1=CC[C@@]2(C)C(=CCC3C2CC[C@@]2(C)C3CC[C@@H]2C(C)N(C)C)C1=O (some centres undefined),2000,9560
COc1ncnc2c(-c3ccccc3)cn(COCc3ccccc3)c12,1740,6820
CCCCCCCCNc1cc2c3c(c1)CCCN3CCC2,1540,5310
CCOC(=O)c1c(C)nc2c(c1N)CC(=O)N2Cc1ccc(OC)cc1,27300,> 100000
